Assay results from patent EP0252299A2, “Use of 12-amino-pyridazino[4',5':3,4]pyrrolo[2,1-a]isoquinolines in the preparation of cardioprotective and neuroprotective agents” (BOEHRINGER INGELHEIM KG, priority 1986, dated 1988).

Legend:
[1] = tested on: myocardiale Radio-Calciumaufnahme; test: Cardioprotective effect: inhibition of isoprenaline-induced myocardial radio-calcium uptake in conscious rats (method of Arndts); assay type: in vivo, Ratten; settings: s.c. or p.o., dose that inhibits by 50 % the myocardial radio-calcium uptake caused by 30 mg/kg s.c. Isoprenalin
Description: Die cardioprotektive Wirkung wird auf folgende Weise bestimmt: Bekanntlich ist der mycardiale Ca⁺²-Gehalt ein Maß für die hypoxische bzw. die durch toxische Catecholamindosen hervorgerufene Herzschädigung (Higgins et al., Mol. Cell. Cardiol. 10: 427 - 438, 1984; Nakanishi et al., Am. J. Physiol. 242: 437 - 449, 1982; Fleckenstein, A., Vorträge der Erlanger Physiol. Tagung 1970, Ed. Keidel, Springer Verlag Berlin, Heidelberg, New York, 1971). Umgekehrt ist die Inhibition der hypoxischen oder Isoprenalin-bedingten myocardialen Calciumaufnahme ein Maß für die cardioprotektive Effektivität von Calciumantagonisten (Fleckenstein s.o.), von Calmodulininhibitoren (Higgins) und anderen Pharmaka, z.B. Betaadrenolytika (Arndts, Arzneimittelforschung 25: 1279 -1284, 1975).
Die cardioprotektive Wirkung wurde an wachen Ratten nach subcutaner oder peroraler Wirkstoffgabe anhand der von Arndts (s.o.) beschriebenen Methode festgestellt, und die Wirkungsstärke der Testsubstanzen als H₅₀-Wert angegeben; dieser Wert entspricht der Dosis, die die durch eine Gabe von 30 (mg/kg; s.c.) Isoprenalin bedingte, myocardiale Radio-Calciumaufnahme zu 50 % hemmt. Hier erwiesen sich die untersuchten neuen Verbindungen als ebenso wirksam wie Nifedipin.

[2] = tested on: Isoliertes Rattenherz; test: Isolated Langendorff rat heart, low-flow oxygen deficiency and reperfusion: time to onset of regular contractions; set-up: species or system Ratten; settings: concentration giving a significant reduction of the time to onset of regular contractions; infusion during O2 deficiency
Method: Die Untersuchungen am isolierten Langendorff-Herzen wurden nach O. Langendorff, Pflügers Arch. 61, 291 (1895) mit kleinen Abwandlungen ausgeführt:
Isoliertes Rattenherz, retrograde Perfusion über die Aorta. Elektrische Stimulation (300 Impulse/min. Impulsdauer Imsec.). Messung des linksventrikulär entwickelten Druckes mit flüssigkeitsgefülltem Latex-Ballon. Nach 20 min Aequilibrierung Auslösen eines Sauerstoff-Mangelzustandes mit 100-fach vermindertem Fluß durch Drosselung des Perfusionsflusses für 60 min, Rückkehr zu normalem Fluß bewirkt starken Anstieg der Grundspannung, unter Kontrollbedingungen setzt die Herztätigkeit nach 6 - 7 min unregelmäßig wieder ein, nach 15 -18 min rascher Übergang zu regelmäßigen Kontraktionen. Cardioprotektiv wirksame Verbindungen verkürzen die Zeit bis zum Einsetzen regelmäßiger Kontraktionen. Infusion der Testsubstanz (gelöst in unbegastem Perfusionsmedium) während des 0₂-Mangelzustandes herznah in das Perfusionssystem.
Die getesteten Verbindungen ergaben bei Anwendung in der unten angegebenen Konzentration eine signifikante Reduktion der Zeit bis zum Einsetzen regelmäßiger Kontraktionen.

[3] = tested on: Kaninchen-Aortenstreifen; test: Calcium ion kinetics (45Ca2+ efflux) in rabbit aortic strips; settings: for Potenzierung des stimulierten Ca²⁺-Efflux: stimulation with 80 mM K⁺
Description: Bestimmung der Calcium-Ionenkinetik an Kaninchen-Aortenstreifen
Methode nach C. van Breemen, P. Aaronson, R. Loutzenheiser und K. Meisheri CHEST 78: 157s - 165s (1980) und R. Casteels & G. Droogman J. Physiol 317: 263 - 279 (1981)
Methode: Mit ⁴⁵Ca²⁺ geladene Aortenstreifen werden sequentiell äquilibriert in physiologischer Lösung. Dabei tauscht das intrazelluläre Ca²⁺ mit dem extrazellulären Ca²⁺ aus, das heißt im extrazellulären Bad ist das radioaktive ⁴⁵Ca²⁺ meßbar. Auf eine Stimulation mit 80 mM K⁺ oder 10⁻⁵ Mol/l Noradrenalin (NA) hin wird der Austausch beschleunigt. Dabei ist die im Bad ansteigende Radioaktivität ein Maß für den Ca²⁺-Efflux. So wird das Ausmaß der durch die Stimulation freigesetzten Ca²⁺ als Effluxrate bestimmt.

[4] = tested on: Tieren; test: Hypoxia tolerance test: survival of animals in a closed chamber; assay type: in vivo; settings: gas mixture 96,5 % nitrogen and 3,5 % oxygen; doses up to 30 mg/kg
[5] = Microiontophoresis (standard method)
Description: Die Mikrointophorese wurde gemäß Standardmethode durchgeführt.

[6] = Scopolamine-induced impairment of short-term memory (scopolamine dementia); assay type: in vivo; settings: Scopolamin 0,6 mg/kg i.p.
Description: In Vesuchen mit Einschränkung des Kurzzeitgedächtnisses bzw.

## 3,4-Dihydro-6,7-dimethoxy-12-(2-methoxyethyl)-amino-pyridazino [4ʹ,5ʹ : 3,4] pyrrolo [2,1-a] isochinolin
[1]
  H50-Wert: 1,92

## 3,4-Dihydro-6,7-dimethoxy-12-(3-dimethylaminopropyl)-aminopyridazino [4ʹ,5ʹ : 3,4]pyrrolo[2,1-a]isochinolin
[2]
  Konzentration: 13,3 µg/ml
[3]
  Potenzierung des stimulierten Ca²⁺-Efflux: 11%
[3]; stimulation with 10⁻⁵ Mol/l Noradrenalin (NA)
  Hemmung des stimulierten Ca²⁺-Efflux: 19%
[4]
  Hypoxie: wirksam (wirksam: Im Dosenbereich bis einschließlich 30 mg/kg zeigen in der mit Substanz behandelten Tiergruppe signifikant mehr Tiere den gewünschten Effekt als in der Kontrollgruppe.)
[5]
  Mikroiontophorese: wirksam (wirksam: Im Dosenbereich bis einschließlich 30 mg/kg zeigen in der mit Substanz behandelten Tiergruppe signifikant mehr Tiere den gewünschten Effekt als in der Kontrollgruppe.)
[1]
  H50-Wert: 0,46

## 3,4-Dihydro-6,7-dimethoxy-12-benzylamino-pyridazino[4ʹ,5ʹ : 3,4] pyrrolo[2,1-a]isochinolin [Verbindung H]
[6]; doses up to 30 mg/kg
  Scopolamin-Demenz: wirksam (wirksam: Im Dosenbereich bis einschließlich 30 mg/kg zeigen in der mit Substanz behandelten Tiergruppe signifikant mehr Tiere den gewünschten Effekt als in der Kontrollgruppe.)

## 3,4-Dihydro-6,7-dimethoxy-12-ethylamino-pyridazino-[4ʹ,5ʹ : 3,4] pyrrolo [2,1-a] isochinolin [B]
[3]
  Potenzierung des stimulierten Ca²⁺-Efflux: 27%
[4]
  Hypoxie: wirksam (wirksam: Im Dosenbereich bis einschließlich 30 mg/kg zeigen in der mit Substanz behandelten Tiergruppe signifikant mehr Tiere den gewünschten Effekt als in der Kontrollgruppe.)

## 3,4-Dihydro-6,7-dimethoxy-12-isopropylamino-pyridazino-[4ʹ,5ʹ : 3,4] pyrrolo [2,1-a] isochinolin
[4]
  Hypoxie: wirksam (wirksam: Im Dosenbereich bis einschließlich 30 mg/kg zeigen in der mit Substanz behandelten Tiergruppe signifikant mehr Tiere den gewünschten Effekt als in der Kontrollgruppe.)

## 12-Allylamino-3,4-dihydro-6,7-dimethoxy-pyridazino-[4ʹ,5ʹ : 3,4] pyrrolo[2,1-a]isochinolin
[1]
  H50-Wert: 2,42

## COc1ccc([C@@H]2Sc3ccccc3N(CCN(C)C)C(=O)[C@@H]2OC(C)=O)cc1 [Diltiazem, reference compound]
[6]; doses up to 30 mg/kg
  Scopolamin-Demenz: unwirksam
[4]
  Hypoxie: unwirksam

## COC(=O)C1=C(C)NC(C)=C(C(=O)OC)C1c1ccccc1[N+](=O)[O-] [Nifedipin]
[6]; dose 1 mg/kg
  Scopolamin-Demenz: wirksam (wirksam: Im Dosenbereich bis einschließlich 30 mg/kg zeigen in der mit Substanz behandelten Tiergruppe signifikant mehr Tiere den gewünschten Effekt als in der Kontrollgruppe.)
[6]; dose 3-30
  Scopolamin-Demenz: unwirksam
[4]
  Hypoxie: unwirksam

## COc1ccc(CCN(C)CCCC(C#N)(c2ccc(OC)c(OC)c2)C(C)C)cc1OC (stereo not drawn) [Verapamil]
[6]; doses up to 30 mg/kg
  Scopolamin-Demenz: unwirksam
